In PubChem BioAssay AID330 (DTP/NCI, 2004):
Several values for one entry are separate records, joined by “and”; a condition that tells them apart may be missing. Identical values can stand only once. Toxic doses and inconclusive results are not listed. The calls were made as follows: active = survival T/C of 150% or more; inactive = T/C below 125% in these data. Numbered stars: 1 amine (or outer) side, 2 acyl side, 3 side chain; on linkers, the order of the positions; unused ones are H or OH. Peptide text beside a SMILES is read from it. CO = O=C([*:1])[*:2]

Tested on: P388 leukemia ip, CD2F1 mice, survival T/C
Assay: NCI In Vivo Anticancer Drug Screen. Data for tumor model P388 Leukemia (intraperitoneal) in CD2F1 (CDF1) mice
Settings: endpoint: median survival time, higher = longer survival
Summary of the method: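 Mice carrying the transplanted tumor received test compound or vehicle. Survival was recorded in each group, and the value is the treated-group measurement divided by that of the vehicle-treated control group.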

[1] = dose: 50.0 mg/kg/injection, schedule: Q01DX005 (ip), vehicle: saline
[2] = dose: 50.0 mg/kg/injection, schedule: Q01DX005 (ip), vehicle: water
[3] = dose: 100.0 mg/kg/injection, schedule: Q01DX005 (ip), vehicle: saline
[4] = dose: 100.0 mg/kg/injection, schedule: Q01DX005 (ip), vehicle: water
[5] = dose: 50.0 mg/kg/injection, schedule: Q01DX005 (ip), vehicle: saline with Tween-80
[6] = dose: 100.0 mg/kg/injection, schedule: Q01DX005 (ip), vehicle: saline with Tween-80
[7] = dose: 200.0 mg/kg/injection, schedule: Q01DX005 (ip), vehicle: saline with Tween-80
[8] = dose: 50.0 mg/kg/injection, schedule: Q01DX005 (ip), vehicle: Klucel (hydroxypropylcellulose) (HPC)
[9] = dose: 100.0 mg/kg/injection, schedule: Q01DX005 (ip), vehicle: Klucel (hydroxypropylcellulose) (HPC)
[10] = dose: 200.0 mg/kg/injection, schedule: Q01DX005 (ip), vehicle: Klucel (hydroxypropylcellulose) (HPC)
[11] = dose: 25.0 mg/kg/injection, schedule: Q01DX009 (ip), vehicle: saline
[12] = dose: 50.0 mg/kg/injection, schedule: Q01DX009 (ip), vehicle: saline
[13] = dose: 100.0 mg/kg/injection, schedule: Q01DX009 (ip), vehicle: saline
[14] = dose: 200.0 mg/kg/injection, schedule: Q01DX009 (ip), vehicle: saline
[15] = dose: 50.0 mg/kg/injection, schedule: Q01DX009 (ip), vehicle: saline with Tween-80

Measured: T/C

CCCCNC(c1ccc(N(CC)CC)cc1)C(Cl)(Cl)Cl (centres undefined)
inactive: [1] 105 % of control and 106 % of control | [2] 100 % of control | [3] 108 % of control and 116 % of control | [4] 93 % of control | dose: 200.0 mg/kg/injection, schedule: Q01DX005 (ip), vehicle: saline 110 % of control

O=C(Nc1nnc(-c2ccccc2)s1)c1cc(=O)c2cc([N+](=O)[O-])ccc2o1
inactive: [5] 100 % of control | [6] 102 % of control | [7] 96 % of control

O=S(=O)(c1ccc(F)cc1)C1C(c2ccccc2)=NNC1c1ccccc1Cl (centres undefined)
inactive: [5] 95 % of control | [6] 95 % of control | [7] 106 % of control

CCOC(=O)N1C(=O)C=CC1=O
inactive: dose: 18.75 mg/kg/injection, schedule: Q01DX009 (ip), vehicle: saline with Tween-80 106 % of control | dose: 37.5 mg/kg/injection, schedule: Q01DX009 (ip), vehicle: saline with Tween-80 104 % of control | dose: 75.0 mg/kg/injection, schedule: Q01DX009 (ip), vehicle: saline with Tween-80 105 % of control and 91 % of control | dose: 150.0 mg/kg/injection, schedule: Q01DX009 (ip), vehicle: saline with Tween-80 113 % of control

O=C1c2ccccc2-c2nc3ncccc3cc21
inactive: dose: 100.0 mg/kg/injection, schedule: Q04DX003 (ip), vehicle: saline with Tween-80 98 % of control | dose: 200.0 mg/kg/injection, schedule: Q04DX003 (ip), vehicle: saline with Tween-80 102 % of control | dose: 400.0 mg/kg/injection, schedule: Q04DX003 (ip), vehicle: saline with Tween-80 102 % of control

CC(C)(C)N1COC(c2ccccc2)C1 (centres undefined)
inactive: [1] 106 % of control | [3] 111 % of control

Nc1ncnc2c1ncn2C1CC(O)C(COC(c2ccccc2)(c2ccccc2)c2ccccc2)O1 (centres undefined)
inactive: [8] 95 % of control | [9] 91 % of control | [10] 86 % of control

COC(=O)/C=C(/Nc1c(Cl)sc2ccccc2c1=O)C(=O)OC
inactive: [5] 97 % of control | [6] 97 % of control | [7] 95 % of control

CC(C)N=Cc1ccccc1O.CC(C)N=Cc1ccccc1O.[Cu]
inactive: dose: 25.0 mg/kg/injection, schedule: Q04DX003 (ip), vehicle: saline with Tween-80 100 % of control | dose: 50.0 mg/kg/injection, schedule: Q04DX003 (ip), vehicle: saline with Tween-80 100 % of control

CC1=C(C(=O)OCc2ccccc2)C(c2cccnc2)C(C(=O)OCc2ccccc2)=C(C)N1
inactive: dose: 25.0 mg/kg/injection, schedule: Q01DX009 (ip), vehicle: distilled water + Tween-80 91 % of control | dose: 50.0 mg/kg/injection, schedule: Q01DX009 (ip), vehicle: distilled water + Tween-80 100 % of control | dose: 100.0 mg/kg/injection, schedule: Q01DX009 (ip), vehicle: distilled water + Tween-80 100 % of control | dose: 200.0 mg/kg/injection, schedule: Q01DX009 (ip), vehicle: distilled water + Tween-80 98 % of control | dose: 400.0 mg/kg/injection, schedule: Q01DX009 (ip), vehicle: distilled water + Tween-80 105 % of control

COc1ccc(/C=N/Nc2cc(C)nc3ccc(F)cc23)c2ccccc12
inactive: dose: 12.5 mg/kg/injection, schedule: Q01DX005 (ip), vehicle: Klucel (hydroxypropylcellulose) (HPC) 97 % of control | dose: 25.0 mg/kg/injection, schedule: Q01DX005 (ip), vehicle: Klucel (hydroxypropylcellulose) (HPC) 98 % of control | [8] 99 % of control

CN(C)c1ccc(C(c2cc3c(cc2O)OCO3)N2CCOCC2)cc1 (centres undefined)
inactive: dose: 60.0 mg/kg/injection, schedule: Q01DX005 (ip), vehicle: saline with Tween-80 113 % of control | dose: 120.0 mg/kg/injection, schedule: Q01DX005 (ip), vehicle: saline with Tween-80 120 % of control | dose: 240.0 mg/kg/injection, schedule: Q01DX005 (ip), vehicle: saline with Tween-80 108 % of control

Cc1nc2ccc(O)cc2c(C(=O)O)c1C(=O)O
inactive: [5] 100 % of control | [6] 96 % of control | [7] 104 % of control

CN1CCc2c3c(c4c(c21)CCN4C)CCc1ccccc1-3
inactive: [8] 104 % of control | [9] 101 % of control | [10] 96 % of control

CNC(=O)CC(N)C(=O)O (centres undefined)
inactive: dose: 12.5 mg/kg/injection, schedule: Q01DX009 (ip), vehicle: saline 96 % of control | [11] 94 % of control | [12] 101 % of control | dose: 50.0 mg/kg/injection, schedule: Q01DX009 (ip), vehicle: water 105 % of control | [13] 98 % of control | dose: 100.0 mg/kg/injection, schedule: Q01DX009 (ip), vehicle: water 105 % of control | [14] 113 % of control | dose: 200.0 mg/kg/injection, schedule: Q01DX009 (ip), vehicle: water 109 % of control

Cc1[nH]nc2c(=O)n(C)cnc12
inactive: dose: 25.0 mg/kg/injection, schedule: Q01DX005 (ip), vehicle: water 100 % of control | [2] 94 % of control | [4] 92 % of control | dose: 200.0 mg/kg/injection, schedule: Q01DX005 (ip), vehicle: water 93 % of control | dose: 400.0 mg/kg/injection, schedule: Q01DX005 (ip), vehicle: water 91 % of control

O=C(c1ccccc1)N1OC2C=CC1C2 (centres undefined)
inactive: dose: 12.5 mg/kg/injection, schedule: Q01DX009 (ip), vehicle: saline with Tween-80 100 % of control | dose: 25.0 mg/kg/injection, schedule: Q01DX009 (ip), vehicle: saline with Tween-80 89 % of control | [15] 100 % of control and 103 % of control

S=C=Nc1ccc(-c2csc(Nc3ccnc4cc(Cl)ccc34)n2)cc1
inactive: dose: 12.5 mg/kg/injection, schedule: Q01DX005 (ip), vehicle: saline with Tween-80 101 % of control | dose: 25.0 mg/kg/injection, schedule: Q01DX005 (ip), vehicle: saline with Tween-80 98 % of control | [5] 99 % of control and 91 % of control | [6] 94 % of control

COc1cc2cc3c(nc2cc1OC)OC(=O)/C3=C\c1ccccc1
inactive: [5] 99 % of control | [6] 98 % of control | [7] 103 % of control

O=C(O)CCCC(=O)c1ccccc1
inactive: [11] 105 % of control | [12] 100 % of control | [13] 101 % of control | [14] 108 % of control

CC(C)C(NC(=O)C(CCCN=C(N)N)NC(=O)NC(Cc1ccccc1)C(=O)O)C(=O)NC(C=O)Cc1ccccc1 (stereo not drawn) ({Phe-CO}-Arg-Val-Phe-aldehyde; configuration not given here)
inactive: dose: 8.25 mg/kg/injection, schedule: Q01DX005 (ip), vehicle: Klucel (hydroxypropylcellulose) (HPC) 95 % of control | dose: 8.75 mg/kg/injection, schedule: Q01DX005 (ip), vehicle: Klucel (hydroxypropylcellulose) (HPC) 99 % of control | dose: 16.5 mg/kg/injection, schedule: Q01DX005 (ip), vehicle: Klucel (hydroxypropylcellulose) (HPC) 92 % of control | dose: 17.5 mg/kg/injection, schedule: Q01DX005 (ip), vehicle: Klucel (hydroxypropylcellulose) (HPC) 99 % of control | dose: 33.0 mg/kg/injection, schedule: Q01DX005 (ip), vehicle: Klucel (hydroxypropylcellulose) (HPC) 93 % of control | dose: 35.0 mg/kg/injection, schedule: Q01DX005 (ip), vehicle: Klucel (hydroxypropylcellulose) (HPC) 93 % of control | dose: 66.0 mg/kg/injection, schedule: Q01DX005 (ip), vehicle: Klucel (hydroxypropylcellulose) (HPC) 92 % of control | dose: 70.0 mg/kg/injection, schedule: Q01DX005 (ip), vehicle: Klucel (hydroxypropylcellulose) (HPC) 87 % of control

CCC1C2Cc3ccc(O)cc3C1(C)CCN2 (centres undefined)
inactive: dose: 60.0 mg/kg/injection, schedule: Q01DX005 (ip), vehicle: saline 95 % of control | dose: 120.0 mg/kg/injection, schedule: Q01DX005 (ip), vehicle: saline 98 % of control

CC[As](CC)SC1CC(OC(=O)c2ccccc2)C(OC(=O)c2ccccc2)C(COC(=O)c2ccccc2)O1 (centres undefined)
inactive: [15] 100 % of control | dose: 100.0 mg/kg/injection, schedule: Q01DX009 (ip), vehicle: saline with Tween-80 105 % of control

O=C(N/C(=C\c1nc2ccccc2s1)c1ccccc1O)c1ccccc1
inactive: dose: 100.0 mg/kg/injection, schedule: Q04DX002 (ip), vehicle: saline with Tween-80 104 % of control | dose: 200.0 mg/kg/injection, schedule: Q04DX002 (ip), vehicle: saline with Tween-80 99 % of control | dose: 400.0 mg/kg/injection, schedule: Q04DX002 (ip), vehicle: saline with Tween-80 103 % of control

FC(F)(F)C1(C(F)(F)F)[O][Sb]([c]2ccccc2)([c]2ccccc2)([c]2ccccc2)[O]1
inactive: dose: 50.0 mg/kg/injection, schedule: Q01DX009 (ip), vehicle: Klucel (hydroxypropylcellulose) (HPC) 100 % of control | dose: 100.0 mg/kg/injection, schedule: Q01DX009 (ip), vehicle: Klucel (hydroxypropylcellulose) (HPC) 101 % of control
